We go through two molecules from ChEMBL document CHEMBL3886715, “Tetrahydroisoquinoline derivatives, pharmaceutical compositions and uses thereof” (2016).

For orientation: IC50 means the concentration at which inhibition is half-maximal.

Each structure is given as a SMILES string.

The target of the test is Acetyl-CoA carboxylase 2 (Homo sapiens, UniProt O00763). As to the kind of experiment: Spectrophotometric 384 Well Assay: Assay reactions are then carried out in 384-well plates, with hACC2 in an appropriate dilution and at final assay concentrations (f.c.) of 100 mM Tris (pH 7.5), 10 mM trisodium citrate, 25 mM KHCO3, 10 mM MgCl2, 0.5 mg/ml BSA, 3.75 mM reduced L-glutathione, 15 U/ml lactate dehydrogenase, 0.5 mM phosphoenolpyruvate, 15 U/ml pyruvate kinase, compounds at different concentrations at final DMSO concentrations of 1%.The enzymatic reaction is then started by addition of a mixture of NADH, acetyl Coenzyme A (both […].) and ATP (500 uM f.c.). The decrease of the optical density (slope S) is then determined at 25° C. at a wavelength of 340 nm over 15 minutes in a spectrophotometric reader.Each assay microtiter plate contains wells with vehicle instead of compound as controls for the non-inhibited enzyme (100% CTL; HIGH) and wells without acetyl-CoA as controls for non-specific NADH degradation (0% CTL; LOW).
Sequence of Acetyl-CoA carboxylase 2 (O00763 whole entry): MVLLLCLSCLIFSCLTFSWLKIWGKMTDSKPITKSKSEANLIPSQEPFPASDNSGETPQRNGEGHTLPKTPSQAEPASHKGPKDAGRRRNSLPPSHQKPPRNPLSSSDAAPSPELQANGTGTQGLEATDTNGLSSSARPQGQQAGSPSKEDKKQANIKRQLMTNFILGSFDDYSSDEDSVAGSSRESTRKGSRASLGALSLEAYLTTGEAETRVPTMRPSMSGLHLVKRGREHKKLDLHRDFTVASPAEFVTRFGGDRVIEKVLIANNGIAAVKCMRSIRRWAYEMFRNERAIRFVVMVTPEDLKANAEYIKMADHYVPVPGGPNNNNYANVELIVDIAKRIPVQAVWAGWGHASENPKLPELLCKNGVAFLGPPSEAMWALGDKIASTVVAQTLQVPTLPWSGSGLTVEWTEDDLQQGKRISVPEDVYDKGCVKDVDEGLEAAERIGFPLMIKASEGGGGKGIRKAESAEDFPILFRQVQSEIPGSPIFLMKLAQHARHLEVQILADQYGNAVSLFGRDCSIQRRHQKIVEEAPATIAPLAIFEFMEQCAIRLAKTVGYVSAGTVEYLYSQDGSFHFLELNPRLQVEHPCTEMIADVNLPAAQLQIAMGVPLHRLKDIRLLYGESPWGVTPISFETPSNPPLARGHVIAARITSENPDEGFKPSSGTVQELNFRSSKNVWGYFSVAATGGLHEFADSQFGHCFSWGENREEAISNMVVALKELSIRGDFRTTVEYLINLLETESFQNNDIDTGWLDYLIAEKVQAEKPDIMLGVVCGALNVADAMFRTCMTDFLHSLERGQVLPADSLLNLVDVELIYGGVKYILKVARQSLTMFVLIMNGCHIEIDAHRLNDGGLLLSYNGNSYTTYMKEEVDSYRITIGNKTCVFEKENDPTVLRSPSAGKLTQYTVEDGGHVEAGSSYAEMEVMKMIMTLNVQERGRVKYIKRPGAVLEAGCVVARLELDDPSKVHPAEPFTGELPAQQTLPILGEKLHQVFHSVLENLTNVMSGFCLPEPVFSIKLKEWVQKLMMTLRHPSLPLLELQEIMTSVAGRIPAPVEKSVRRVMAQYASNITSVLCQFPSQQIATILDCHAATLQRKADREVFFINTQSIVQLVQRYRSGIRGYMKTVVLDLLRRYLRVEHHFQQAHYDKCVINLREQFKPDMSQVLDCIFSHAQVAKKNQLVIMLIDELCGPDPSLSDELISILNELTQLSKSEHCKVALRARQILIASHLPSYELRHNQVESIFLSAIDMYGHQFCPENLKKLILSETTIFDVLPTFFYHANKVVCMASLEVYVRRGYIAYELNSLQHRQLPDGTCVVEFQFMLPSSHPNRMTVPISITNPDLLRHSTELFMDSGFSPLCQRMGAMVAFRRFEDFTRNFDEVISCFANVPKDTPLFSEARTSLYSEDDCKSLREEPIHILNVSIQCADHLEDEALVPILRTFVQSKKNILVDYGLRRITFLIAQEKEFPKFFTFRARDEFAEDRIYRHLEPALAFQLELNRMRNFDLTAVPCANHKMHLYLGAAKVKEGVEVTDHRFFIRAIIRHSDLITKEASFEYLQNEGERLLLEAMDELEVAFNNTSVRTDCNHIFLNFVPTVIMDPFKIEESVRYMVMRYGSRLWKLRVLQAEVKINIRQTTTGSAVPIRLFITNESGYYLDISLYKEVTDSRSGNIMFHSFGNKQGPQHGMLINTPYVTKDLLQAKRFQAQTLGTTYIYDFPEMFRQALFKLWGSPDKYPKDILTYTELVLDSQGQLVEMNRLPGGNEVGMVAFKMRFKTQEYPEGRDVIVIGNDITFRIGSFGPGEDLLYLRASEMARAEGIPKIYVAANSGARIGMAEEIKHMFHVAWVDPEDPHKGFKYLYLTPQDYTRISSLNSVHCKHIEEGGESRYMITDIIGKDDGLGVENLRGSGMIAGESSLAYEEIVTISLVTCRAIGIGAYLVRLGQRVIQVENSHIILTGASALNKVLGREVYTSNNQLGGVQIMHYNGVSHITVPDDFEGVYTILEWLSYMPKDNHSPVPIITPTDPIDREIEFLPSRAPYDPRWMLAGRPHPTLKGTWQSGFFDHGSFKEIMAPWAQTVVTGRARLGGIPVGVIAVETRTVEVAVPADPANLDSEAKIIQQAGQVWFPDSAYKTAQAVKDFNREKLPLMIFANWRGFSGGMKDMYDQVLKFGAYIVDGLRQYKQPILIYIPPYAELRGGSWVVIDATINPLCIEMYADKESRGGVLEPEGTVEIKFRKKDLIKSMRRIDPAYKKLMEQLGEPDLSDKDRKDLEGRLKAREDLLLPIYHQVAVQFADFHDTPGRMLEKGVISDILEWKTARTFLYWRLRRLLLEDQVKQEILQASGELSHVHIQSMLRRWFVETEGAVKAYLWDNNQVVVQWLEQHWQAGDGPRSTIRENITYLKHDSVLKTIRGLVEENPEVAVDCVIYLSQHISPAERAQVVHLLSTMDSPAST

Regarding `CC(=O)N[C@@H](C)c1ccc(CN2CCc3cc(OCC4CC4)ccc3C2C(=O)O)cc1` (some centres not stated), the IC50 came to 806 nM.

As for `C[C@H](NC(=O)N(C)C)c1ccc(CN2Cc3ccc(OCC4CC4)cc3C(F)C2)cc1` (some centres not stated), the IC50 was found to be 22 nM.
